Assay [1] deals with T1, Human immunodeficiency virus type 1 reverse transcriptase (Human immunodeficiency virus 1, UniProt Q72547). The assay can be described thus: The compound was evaluated as inhibitor of recombinant HIV-l reverse transcriptase.
Assay [2] concerns the target T2, Avian myoblastosis virus polyprotein II (Avian myeloblastosis virus, UniProt Q86831).
T2 sequence (Q86831 whole entry): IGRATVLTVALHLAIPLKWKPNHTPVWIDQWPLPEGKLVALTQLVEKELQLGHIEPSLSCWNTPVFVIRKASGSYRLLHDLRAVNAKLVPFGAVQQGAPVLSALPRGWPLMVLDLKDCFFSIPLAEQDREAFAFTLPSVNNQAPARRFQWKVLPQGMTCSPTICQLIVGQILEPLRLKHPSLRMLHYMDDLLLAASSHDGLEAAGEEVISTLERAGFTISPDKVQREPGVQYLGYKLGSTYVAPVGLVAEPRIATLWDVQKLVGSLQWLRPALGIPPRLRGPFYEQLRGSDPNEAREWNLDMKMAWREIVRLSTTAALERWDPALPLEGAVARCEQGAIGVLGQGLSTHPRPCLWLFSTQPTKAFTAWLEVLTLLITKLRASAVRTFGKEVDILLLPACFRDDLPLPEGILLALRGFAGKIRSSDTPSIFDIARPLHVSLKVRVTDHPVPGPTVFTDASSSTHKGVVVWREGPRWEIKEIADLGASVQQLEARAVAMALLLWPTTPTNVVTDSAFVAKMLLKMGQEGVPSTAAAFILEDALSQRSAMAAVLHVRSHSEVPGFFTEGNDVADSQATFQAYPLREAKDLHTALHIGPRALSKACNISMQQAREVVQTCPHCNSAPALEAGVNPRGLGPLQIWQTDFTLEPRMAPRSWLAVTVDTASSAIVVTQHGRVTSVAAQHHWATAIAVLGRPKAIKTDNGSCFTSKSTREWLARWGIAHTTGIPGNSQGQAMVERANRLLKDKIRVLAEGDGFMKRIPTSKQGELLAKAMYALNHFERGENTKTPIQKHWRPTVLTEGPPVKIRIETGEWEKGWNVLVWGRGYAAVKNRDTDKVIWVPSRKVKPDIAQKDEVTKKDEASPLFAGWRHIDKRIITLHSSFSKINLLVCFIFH
The assay can be described thus: Inhibitor of avian myeloblastosis virus AMV reverse transcriptase.

Assay [3] has as its system Avian myeloblastosis virus. In words: The compound was evaluated as inhibitor of avian myeloblastosis virus (AMV) reverse transcriptase. The assay is classed as functional, organism-based.
Assay [4] concerns the target T1, Human immunodeficiency virus type 1 reverse transcriptase. The assay can be described thus: Compound was evaluated as inhibitor of recombinant HIV-l reverse transcriptase.
Assay [5] deals with Avian myeloblastosis virus. In words: Compound was evaluated as inhibitor of avian myeloblastosis virus (AMV) reverse transcriptase. The assay is classed as functional, organism-based.

≈ marks a conversion by molar mass, not a printed value. Some results are limits rather than exact numbers.

What is called IC50 is the midpoint of a concentration-inhibition curve. For `Cc1cn(C2CC(N=[N+]=[N-])C(COP(=O)(O)C(F)F)O2)c(=O)[nH]c1=O` (stereo not drawn), the half-inhibitory concentration (IC50) in assay [1] is 55.1 µM. Still for that read-out and setting: to `Cc1cn(C2CC(N=[N+]=[N-])C(COP(=O)(O)C(F)(F)F)O2)c(=O)[nH]c1=O` (stereo not drawn) belongs 30.1 µM; to `O=c1[nH]c(=O)n([C@H]2C[C@H](O)[C@@H](COP(=O)(O)C(F)(F)F)O2)cc1F`, 47.6 µM.

`Cc1cn(C2CC(N=[N+]=[N-])C(COP(=O)(O)CF)O2)c(=O)[nH]c1=O` (stereo not drawn): the IC50 in assay [1] is 110 µM. Molecule `Nc1ncnc2c1ncn2C1O[C@H](COP(=O)(O)C(F)F)[C@@H](O)[C@H]1O` (stereo partly drawn) displayed a 50% inhibitory concentration (IC50) in assay [2] of more than 1050 µM. Same read-out and setting: to `O=c1ccn(C2O[C@H](COP(=O)(O)C(F)F)[C@@H](O)[C@H]2O)c(=O)[nH]1` (stereo partly drawn) belongs more than 1120 µM. Molecule `Nc1nc(O)c2ncn(C3O[C@H](COP(=O)(O)C(F)F)[C@@H](O)[C@H]3O)c2n1` (stereo partly drawn) came in with an IC50 in assay [3] of 150 µg/mL (≈ 378 µM). For `Cc1cn([C@H]2C[C@H](N=[N+]=[N-])[C@@H](COP(=O)(O)O)O2)c(=O)[nH]c1=O` [AZIDOTHYMIDINE MONOPHOSPHATE], the IC50 in assay [1] is more than 2880 µM; in assay [3], 900 µg/mL. For `Cc1cn([C@H]2C[C@H](N=[N+]=[N-])[C@@H](CO[P@](=O)(O)O[P@](=O)(O)OP(=O)(O)O)O2)c(=O)[nH]c1=O` [ZIDOVUDINE TRIPHOSPHATE], in that order: 0.237 µM and 0.06 µg/mL. As for `Cc1cn([C@H]2C[C@H](N=[N+]=[N-])[C@@H](CO)O2)c(=O)[nH]c1=O` [ZIDOVUDINE], the half-maximal inhibitory concentration (IC50) is 2990 µM in assay [4] and 600 µg/mL (≈ 2250 µM) in assay [5].

The values above are taken from ChEMBL document CHEMBL1126397, “Synthesis of acid stable 5-o-fluoromethyl phosphonates of nucleosides. Evaluation as inhibitors of reverse transcriptase” (Bioorg Med Chem Lett, 1992).
